{"source": "patent US20090312414A1", "about": "“Treatment Of Lower Urinary Tract Dysfunction With CB2-Receptor-Selective Agonists” (priority 2008, published 2009)", "key": {"[1]": {"experiment": "Actual solubility in aqueous buffers", "assay_type": "physicochemical", "settings": "aqueous buffer", "protocol": "The actual solubility of certain compounds of the invention was assessed in aqueous buffers and final concentration of compounds was determined using HPLC and spectrophotometer methodologies."}, "conscious normal rats": {"tested_on": "conscious normal rats", "experiment": "Cystometry in normal conscious rats", "assay_type": "in vivo, rat", "settings": "for Residual volume (RV): ns", "description": "This study involved a determination of the acute effect of the compound of Formula I, a peripherally-selective, CB2-receptor-selective agonist, on normal bladder function in normal conscious freely moving rats using cystometry.\nFemale Sprague-Dawley rats, weighing 225-300 g, were maintained under standard laboratory conditions with a 12:12 light/dark cycle and free access to food pellets and water. After surgical procedures, rats were individually caged to prevent chewing of the catheters. For surgical procedures, the rats were anesthetized by intraperitoneal injection of 75 mg/kg ketamine (Ketalar®, Pfizer, Sweden) and 15 mg/kg xylazine (Rompun®, Bayer, Sweden).\nThe bladder was exposed via a mid-line incision of the lower abdomen. A saline-filled polyethylene catheter (PE-50, Clay-Adams, Parsippany, N.J.) with a cuff was inserted into the dome of the bladder and held in place with a purse string suture. The catheter was tunneled subcutaneously and anchored at the neck with a silk ligature, and the free end of the catheter was sealed.\nIn the same surgical session as for implantation of the bladder catheter, access to the femoral vein was given via the mid-line incision of the lower abdomen after careful blunt dissection of the subcutaneous fascias and the femoral vascular sheath. A stretched PE-50 catheter filled with heparinized saline was introduced into the femoral vein and forwarded with its tip in the iliac vein. The catheter was then secured in position by two ligatures, tunneled subcutaneously to the skin of the back and anchored as described above, and the free end of the catheter was sealed.\nThe appropriate solution of the compound of Formula I was prepared on the day of the experiment using phosphate-buffered saline (“PBS”) as the vehicle. The compound of Formula I was dissolved to obtain a 10 mg/ml stock solution. For the 3 mg/kg dose, each animal was administered individually weight-controlled amounts in a volume of approximately 100 μl IV of the stock solution. For lower doses, appropriate dilutions of the stock solution were made and animals were administered similar volumes containing 0.3 or 1 mg/kg. […] After administration of the compound of Formula I, 100 μl of heparinized saline was also infused to flush the IV catheter, and a 90 to 120-minute observation period was allowed until final stable micturitions were obtained. Each animal served as its own control.\nCystometry was performed without anesthesia three days after the implantation of bladder catheters in normal rats. The conscious rats were placed in metabolic cages without restraint and the bladder catheters were connected via a T-tube to a pressure transducer (P23 DC; Statham Instruments Inc., Oxnard, Calif.) and a microinjection pump (CMA 100; Carnegie Medicine AB, Solna, Sweden). Micturition volumes were recorded with a fluid collector connected to a force displacement transducer (FT 03 D, Grass Instrument Co., Quincy, Mass.). Room-temperature saline was infused into the bladder continuously at a rate of 10 ml/h. Pressures and micturition volumes were recorded continuously with Acq Knowledge 3.8.1 software and a MP100 data acquisition system (Biopac Syst. Inc. Santa Barbara, Calif.) connected to a Grass polygraph (Model 7E, Grass Instrument Co). At the beginning of cystometry, the bladder was emptied via the bladder catheter.\nThe following urodynamic parameters were investigated: micturition pressure (“MP;” maximum bladder pressure during micturition), threshold pressure (“ThP”; bladder pressure at start of detrusor contraction), flow pressure (“FP”; bladder pressure when urethra opens), micturition interval (“MI”; time between two micturitions), micturition volume (“MV”; volume of the expelled urine), and residual volume (“RV”; volume left in bladder after a micturition). […]"}, "[2]": {"tested_on": "isolated detrusor from rats with partial urethral obstruction", "experiment": "Carbachol-induced contractions in bladder strips from PUO rats", "assay_type": "ex vivo, rat", "settings": "strips from PUO rats treated for 2 weeks", "protocol": "(§1) The effect of chronic treatment with the compound of Formula I was studied in contractility studies with isolated bladder strips from rats with PUO after 2 weeks of treatment with the compound of Formula I.\n(§2) Bladder strips (2×2×6 mm) were dissected from PUO rat bladders. Silk ligatures were applied at both ends of the preparations which then were mounted on metal prongs in 5 ml aerated (95% O2 and 5% CO2) tissue baths (37° C.) containing Krebs solution. Mechanical activity was registered with Grass FT 03C force transducers connected to a Grass Polygraph model 7E. The preparations were stretched to a tension of approximately 10 mN and left to equilibrate for 45 minutes to attain a stable resting tonus. To establish the viability of the preparations and to determine a standard contractile level, preparations were exposed to a 60 mM K^+ Krebs solution. The effects of cumulative addition of carbachol, a non-selective muscarininc agonist (1 nM-0.1 mM), were studied in strip preparations from vehicle-treated and compound of Formula I-treated rats with PUO.\nTransmural activation of nerves was performed with two platinum electrodes, placed in parallel to the sides of the strips in the organ baths. […] All contractile responses were expressed as a percentage of the contraction elicited by 60 mM K^+ Krebs solution. […]"}, "[3]": {"tested_on": "isolated detrusor from rats with partial urethral obstruction", "experiment": "Nerve-induced contractions (electrical field stimulation) in bladder strips from PUO rats", "assay_type": "ex vivo, rat", "settings": "for Nerve-induced contractions: % of 60 mM K+ responses, preparations from treated PUO rats", "protocol": "as §1, §2\nTransmural activation of nerves was performed with two platinum electrodes, placed in parallel to the sides of the strips in the organ baths. The nerves of the preparations were stimulated by means of a Grass S 48 stimulator, delivering single square-wave pulses at supramaximum voltage with duration of 0.5 ms. The polarity was changed after each pulse by means of a polarity-changing unit. The train duration was 5 seconds and the train interval 120 seconds. Frequency-response relationships were investigated at supramaximum voltage in all preparations stimulated electrically. […] All contractile responses were expressed as a percentage of the contraction elicited by 60 mM K^+ Krebs solution. Simultaneous curve fit analysis was performed using GraphPad Prism v4.0 to determine statistical significance for increased efficacy of the compound of Formula I treatment upon muscle strips. Briefly, dose-response curves were tested comparing a variable slope model vs. a fixed slope (m=1) model."}}, "data": [{"smiles": "CCCCCCC(C)(C)c1cc(O)c([C@H]2CC(=O)[C@H]3C[C@@H]2C3(C)C)c(OC(=O)/C=C/C(=O)O)c1", "note": "[Formula I]", "values": [{"measurement": "solubility", "setting": "[1]", "value": "> 10000", "unit": "µg/mL"}, {"measurement": "Basal pressure (BP)", "setting": "conscious normal rats; 0.3 mg/kg IV", "value": "4.7±2.0", "unit": "cmH2O"}, {"measurement": "Micturition pressure (MP)", "setting": "conscious normal rats; 0.3 mg/kg IV", "value": "64.3±12.3", "unit": "cmH2O"}, {"measurement": "Rats responding with increased MI", "setting": "conscious normal rats; 0.3 mg/kg IV", "value": "5 out of 8"}, {"measurement": "Rats responding with increased MV", "setting": "conscious normal rats; 0.3 mg/kg IV", "value": "5 out of 8"}, {"measurement": "Rats responding with increased ThP", "setting": "conscious normal rats; 0.3 mg/kg IV", "value": "5 out of 8"}, {"measurement": "Bladder capacity (BC)", "setting": "conscious normal rats; 0.3 mg/kg IV, not significant", "value": "0.98 ± 0.21", "unit": "mL"}, {"measurement": "Flow pressure (FP)", "setting": "conscious normal rats; 0.3 mg/kg IV, not significant", "value": "34.1±8.8", "unit": "cmH2O"}, {"measurement": "Micturition interval (MI)", "setting": "conscious normal rats; 0.3 mg/kg IV, not significant", "value": "260 ± 69", "unit": "s"}, {"measurement": "Micturition volume (MV)", "setting": "conscious normal rats; 0.3 mg/kg IV, not significant", "value": "0.93 ± 0.21", "unit": "mL"}, {"measurement": "Threshold pressure (ThP)", "setting": "conscious normal rats; 0.3 mg/kg IV, not significant", "value": "16.5±2.2", "unit": "cmH2O"}, {"measurement": "Residual volume (RV)", "setting": "conscious normal rats; 0.3 mg/kg IV", "value": "0.01 ± 0.01", "unit": "mL"}, {"measurement": "Basal pressure (BP)", "setting": "conscious normal rats; 1 mg/kg IV", "value": "3.7±1.2", "unit": "cmH2O"}, {"measurement": "Micturition pressure (MP)", "setting": "conscious normal rats; 1 mg/kg IV", "value": "65.1±8.6", "unit": "cmH2O"}, {"measurement": "Rats responding with increased MI", "setting": "conscious normal rats; 1 mg/kg IV", "value": "3 out of 8"}, {"measurement": "Rats responding with increased MV", "setting": "conscious normal rats; 1 mg/kg IV", "value": "6 out of 8"}, {"measurement": "Rats responding with increased ThP", "setting": "conscious normal rats; 1 mg/kg IV", "value": "1 out of 8"}, {"measurement": "Bladder capacity (BC)", "setting": "conscious normal rats; 1 mg/kg IV, not significant", "value": "0.91 ± 0.17", "unit": "mL"}, {"measurement": "Flow pressure (FP)", "setting": "conscious normal rats; 1 mg/kg IV, not significant", "value": "26.0±2.4", "unit": "cmH2O"}, {"measurement": "Micturition interval (MI)", "setting": "conscious normal rats; 1 mg/kg IV, not significant", "value": "251 ± 63", "unit": "s"}, {"measurement": "Micturition volume (MV)", "setting": "conscious normal rats; 1 mg/kg IV, not significant", "value": "0.90 ± 0.17", "unit": "mL"}, {"measurement": "Threshold pressure (ThP)", "setting": "conscious normal rats; 1 mg/kg IV, not significant", "value": "12.6±2.0", "unit": "cmH2O"}, {"measurement": "Residual volume (RV)", "setting": "conscious normal rats; 1 mg/kg IV", "value": "0.01 ± 0.01", "unit": "mL"}, {"measurement": "Basal pressure (BP)", "setting": "conscious normal rats; 3 mg/kg IV", "value": "9.0±4.3", "unit": "cmH2O"}, {"measurement": "Micturition pressure (MP)", "setting": "conscious normal rats; 3 mg/kg IV", "value": "87.3±18.9", "unit": "cmH2O"}, {"measurement": "Rats responding with increased FP", "setting": "conscious normal rats; 3 mg/kg IV", "value": "6 out of 8"}, {"measurement": "Rats responding with increased MI", "setting": "conscious normal rats; 3 mg/kg IV", "value": "7 out of 8"}, {"measurement": "Rats responding with increased MV", "setting": "conscious normal rats; 3 mg/kg IV", "value": "7 out of 8"}, {"measurement": "Rats responding with increased ThP", "setting": "conscious normal rats; 3 mg/kg IV", "value": "7 out of 8"}, {"measurement": "Threshold pressure (ThP)", "setting": "conscious normal rats; 3 mg/kg IV, ANOVA ns, paired t-test vs. baseline p=0.05", "value": "38.1±13.9", "unit": "cmH2O"}, {"measurement": "Flow pressure (FP)", "setting": "conscious normal rats; 3 mg/kg IV, not significant", "value": "62.3±18.4", "unit": "cmH2O"}, {"measurement": "Residual volume (RV)", "setting": "conscious normal rats; 3 mg/kg IV", "value": "0.02 ± 0.02", "unit": "mL"}, {"measurement": "Bladder capacity (BC)", "setting": "conscious normal rats; 3 mg/kg IV, p<0.001 vs. baseline, p<0.005 vs. vehicle", "value": "1.42 ± 0.18", "unit": "mL"}, {"measurement": "Micturition volume (MV)", "setting": "conscious normal rats; 3 mg/kg IV, p<0.001 vs. baseline, p<0.01 vs. vehicle", "value": "1.4 ± 0.2", "unit": "mL"}, {"measurement": "Micturition interval (MI)", "setting": "conscious normal rats; 3 mg/kg IV, p<0.02 vs. baseline", "value": "423 ± 63", "unit": "s"}, {"measurement": "Animals responding with an increase or decrease in FP", "setting": "conscious normal rats; 0.3 and 1 mg/kg IV", "value": 50, "unit": "%"}, {"measurement": "Animals with a decrease in BP", "setting": "conscious normal rats; all doses (0.3, 1, 3 mg/kg IV)", "value": "37.5-50 % of rats"}, {"measurement": "Animals with an increase in BP", "setting": "conscious normal rats; all doses (0.3, 1, 3 mg/kg IV)", "value": "25-37.5 % of rats"}, {"measurement": "Animals with no change in BP", "setting": "conscious normal rats; all doses (0.3, 1, 3 mg/kg IV)", "value": "12.5-25 % of rats"}, {"measurement": "Rats responding with increased BC", "setting": "conscious normal rats; all doses (0.3, 1, 3 mg/kg IV)", "value": "6 out of 8"}, {"measurement": "Carbachol-induced detrusor contractions vs vehicle-treated PUO rats", "setting": "[2]; carbachol 1 nM to 1 μM", "value": "no differences"}, {"measurement": "Maximal response to carbachol vs vehicle-treated PUO rats", "setting": "[2]; simultaneous curve fitting, p<0.0008", "value": "significant increase"}, {"measurement": "Nerve-induced contractions vs untreated PUO rats", "setting": "[3]; 1 Hz, bladders from PUO rats treated for 2 weeks", "value": "significantly larger contractions"}, {"measurement": "Nerve-induced contractions", "setting": "[3]; 8 Hz, p<0.01", "value": "83±14", "unit": "%"}, {"measurement": "Nerve-induced contractions", "setting": "[3]; 16 Hz, p<0.005", "value": "120±16", "unit": "%"}, {"measurement": "Nerve-induced contractions", "setting": "[3]; 32 Hz, p<0.006", "value": "146±16", "unit": "%"}]}]}
